According to patent US6828091B2, “Method of identifying immunosuppressive agents” (Cytovia, Inc., priority 2000, dated 2004):

How the values were obtained:
activated T lymphocytes [1] = assay: Caspase cascade activation with fluorogenic reporter, activated T lymphocytes; type: cell-based, Human; conditions: for Caspase Activity in Activated Cells 24 Hr Induction (Ratio): OKT3-activated human T lymphocytes, 24 hr incubation, ratio Net Sample RFU/Net Control RFU; for Induction of apoptosis in activated T cells (in words): 24 hr
Experimental: (§1) Human peripheral blood mononuclear cells (PBMC), were purchased from Clonetics, San Diego (cat. No. CC2702). These cells were primarily enriched in T lymphocytes by a process of leukapheresis and density gradient centrifugation (Clonetics), and contain some monocytes and no B lymphocytes or Dendritic cells. Cells are cultured (0.75×10^6 cells/ml) in RPMI 1640 medium containing 10% fetal bovine serum (Gibco), 2 mM L-Glutamine, 25 mM Hepes, 1 mM sodium pyruvate, 1 mM non-essential aminoacids (NEAA) and 1% penicillin/streptomycin solution. Cells were then activated with 100 ng/ml of murine monoclonal antibody (OKT3) to the human T cell receptor (Liu, Y-C., et al., J. Biol. Chem 272: 9979 (1996)). Cells were incubated at 37° C. in a 5% CO2-95% humidity incubator for 3 days. […] In a parallel experiment, resting T lymphocytes that were not activated by the above method were used directly in an experiment. An aliquot of 45 μl of activated or resting T lymphocytes (containing 10^5 cells) was added to a well of a 96-well microtiter plate containing 5 μl of a 10% DMSO in RPMI 1640 medium containing serial 2-fold dilution of the different test compounds starting at a concentration of 10 uM.
(§2) An aliquot of 45 μl of cells was also added to a well of a 96-well microtiter plate containing 5 μl of a 10% DMSO in RPMI 1640 medium without the test compounds as the control sample. The samples were gently mixed by agitation and then incubated at 37° C. for 24 hr in a 5% CO2-95% humidity incubator. After incubation, the samples were removed from the incubator and 50 μl of a solution containing 20 μM of N-(Ac-DEVD)-N′-ethoxycarbonyl-R110 (SEQ ID NO. 1) fluorogenic substrate U.S. Pat. No. 6,342,611; WO 99/18856), 20 mM DTT(Sigma) in Hanks Balanced Salt Solution (HBSS, Gibco) was added. The samples were mixed by agitation and incubated for 1 hr at room temperature. Using a fluorescent plate reader (Model 1420, Wallac Instruments), an initial reading (T=0) was made approximately […] after addition of the substrate solution, employing excitation at 485 nm and emission at 530 nm, to determine the background fluorescence of the control sample. After the 1 hr incubation, the samples were read for fluorescence as above (T=1 hr).
(§3) Calculation: Measured relative fluorescence unit (RFU) values were used to calculate the gain in fluorescence of the sample with the test compound as follows:
(§4) Sample RFU(T=1 hr)−Sample RFU(T=0)=Net Sample RFU (4)
(§5) and the background gain in fluorescence of the control sample (lacking the test compound) as follows:
(§6) Control RFU(I=1 hr)−Control RFU(I=0)=Net Control RFU (5)
(§7) The relative potency of a given test compound is given by the following ratio:
(§8) (Net Sample RFU)/(Net Control RFU) (6)

resting T lymphocytes [2] = assay: Caspase cascade activation with fluorogenic reporter, resting T lymphocytes; type: cell-based, Human; conditions: for Induction of apoptosis in resting T cells (in words): 24 hr; for Caspase Induction in Resting T Cells 24 Hr Induction (Ratio): resting human T lymphocytes, 24 hr incubation, ratio Net Sample RFU/Net Control RFU
Experimental: as §1, §2, §3, §4, §5, §6, §7, §8

resting T lymphocytes [3] = assay: Cytotoxicity with chromogenic reporter of mitochondrial activity, resting T lymphocytes; type: cell-based, Human; conditions: 48 hr, absorbance 490 nm, FIG. 1 or 2
Experimental: (§9) Human peripheral blood mononuclear cells (PBMC), were purchased from Clonetics, San Diego (cat. no. CC2702). These cells were primarily enriched in T lymphocytes by a process of leukapheresis and density gradient centrifugation (Clonetics), and contain some monocytes and no B lymphocytes or Dendritic cells. Cells are cultured (0.75×10^6 cells/ml) in RPMI 1640 medium containing 10% fetal bovine serum (Gibco), 2 mM L-Glutamine, 25 mM Hepes, 1 mM sodium pyruvate, 1 mM non essential aminoacids (NEAA) and 1% penicillin/streptomycin solution. Cells were then activated with 100 ng/ml of murine monoclonal antibody to the human T cell receptor (Liu, Y-C., et al., J. Biol. Chem. 272: 9979 (1996)). Cells were incubated at 37° C. in a 5% CO2-95% humidity incubator for 3 days. […] In a parallel experiment, resting T lymphocytes that were not activated in the above mentioned method were used directly in an experiment.
(§10) An aliquot of 45 μl of activated or resting T lymphocytes (containing 10^5 cells) was added to wells of a 96-well microtiter plate containing 5 μl of a 10% DMSO in RPMI 1640 medium containing different dilutions of the test compounds. […] Using a plate reader (Model 1420, Wallac Instruments), samples were read at absorbance 490 nm.

activated T lymphocytes [4] = assay: Cytotoxicity with chromogenic reporter of mitochondrial activity, activated T lymphocytes; type: cell-based, Human; conditions: 48 hr, absorbance 490 nm, FIG. 1 or 2
Experimental: as §9, §10

[5] = test system: collagen induced arthritis; assay: Collagen-induced arthritis (CIA) mouse model; type: in vivo; conditions: 1 mg/kg subcutaneously daily from 2nd immunization (Day 21), DBA/1 mice, FIG. 3

Row | SMILES | Caspase Activity in Activated Cells 24 Hr Induction (Ratio) (activated T lymphocytes [1]) | Induction of apoptosis in activated T cells (in words) (activated T lymphocytes [1]) | Induction of apoptosis in resting T cells (in words) (resting T lymphocytes [2]) | Caspase Induction in Resting T Cells 24 Hr Induction (Ratio) (resting T lymphocytes [2]) | Cytotoxicity to resting T cells (in words) (resting T lymphocytes [3]) | Cytotoxicity to activated T cells (in words) (activated T lymphocytes [4]) | Decrease in cumulative CIA score [5] [%]
1 | Cc1ccc(C2CC(c3c(O)cc(C)oc3=O)=NCCS2)cc1 (stereo not shown) [5-(4-hydroxy-6-methyl-2H-pyran-2-one-3-yl)-7-(4-methylphenyl)-2,3,6,7-tetrahydro-1,4-thiazepine] | 1.0 | did not induce apoptosis in either cell type | did not induce apoptosis in either cell type | 1.0 |  |  | 
2 | CC(C)=CCC[C@]1(C)C=Cc2c(O)c3c(c(CC=C(C)C)c2O1)O[C@]12C(=C[C@@H]4C[C@H]1C(C)(C)O[C@@]2(C/C=C(/C)C(=O)O)C4=O)C3=O [gambogic acid] | 3.4 | induced apoptosis in both activated and resting T cells | induced apoptosis in both activated and resting T cells | 2.0 |  |  | 
3 | CN(Cc1cnc2nc(N)nc(N)c2n1)c1ccc(C(=O)N[C@@H](CCC(=O)O)C(=O)O)cc1 [methotrexate] |  |  |  |  | not to resting T lymphocytes | only cytotoxic to activated | 
4 | C[C@]12C=CC(=O)C=C1CC[C@@H]1[C@@H]2[C@@H](O)C[C@@]2(C)[C@H]1CC[C@]2(O)C(=O)CO [predisolone, Prednisolone] |  |  |  |  |  |  | 75
5 | CN[C@@H]1C[C@H]2O[C@@](C)([C@@H]1OC)n1c3ccccc3c3c4c(c5c6ccccc6n2c5c31)C(=O)NC4 [staurosporine] |  |  |  |  | cytotoxic to both activated and resting T cells | cytotoxic to both activated and resting T cells | 
